The text below walks through data of patent US6441023B1 (American Home Products Corporation, priority 1997, dated 2002).

The target in series [1] is T1, MMP 13 (Homo sapiens, UniProt P45452). Description: MMP 13 inhibition (HTS). It counts as biochemical.
In the next series the target is T2, TACE (Homo sapiens, UniProt P78536).
T2 construct: purchased Immunex
Put plainly: Procedure for measuring TACE inhibition. Type of series: biochemical. The conditions noted are these: for IC50: read-out: TACE IC 50. As for the experimental part:
Using 96-well black microtiter plates, each well receives a solution composed of 10 μL TACE (Inmunex, final concentration 1 μg/mL), 70 μL Tris buffer, pH 7.4 containing 10% glycerol (final concentration 10 mM), and 10 μL of test compound solution in DMSO ([…], DMSO concentration <1%) and incubated for 10 minutes at room temperature. The reaction is initiated by addition of a fluorescent peptidyl substrate (final concentration 100 μM to each well and then shaking on a shaker for 5 sec.
The reaction is read (excitation 340 nm, emission 420 nm) for 10 min. and the increase in fluorescence over time is plotted as a linear line. The slope of the line is calculated and represents the reaction rate.
The mean (xtsem) of the control rate is calculated and compared for statistical significance (p<0.05) with drug-treated rates using Dunnett's multiple comparison test.

The target of the next series is T3, MMP 9 (Homo sapiens, UniProt P14780).
T3 construct: from tissue; host or cells: human neutrophils
Put plainly: In vitro gelatinase assay (human neutrophil gelatinase B). The following applies: read-out: MMP 9 IC 50. Type of series: biochemical. Here is the method: The assay is based on the cleavage of the thiopeptide substrate ((Ac-Pro-Leu-Gly(2 mercapto-4 methyl-pentanoyl)-Leu-Gly-OEt), Bachem Bioscience) by the enzyme, gelatinase, releasing the substrate product which reacts calorimetrically with DTNB ((5,5′-dithio-bis(2-nitro-benzoic acid)). The enzyme activity is measured by the rate of the color increase.
The thiopeptide substrate is made up fresh as a 20 mM stock in 100% DMSO and the DTNB is dissolved in 100% DMSO as a 100 mM stock and stored in dark at room temperature. Both the substrate and DTNB are diluted together to 1 mM with substrate buffer (50 mM HEPES pH 7.5, 5 mM CaCl2) before use. The stock of human neutrophil gelatinase B is diluted with assay buffer (50 mnM HEPES pH 7.5, 5 mM CaCl2, 0.02% Brij) to a final concentration of 0.15 mnM.
The increase in OD405 is plotted and the slope of the line is calculated which represents the reaction rate.

Another series has as its target T4, MMP 1 (Homo sapiens, UniProt P03956).
T4 construct: human recombinant fibroblast collagenase (truncated, mw=18,828, WAR, Radnor)
T4 sequence (P03956 100-269 limits assumed): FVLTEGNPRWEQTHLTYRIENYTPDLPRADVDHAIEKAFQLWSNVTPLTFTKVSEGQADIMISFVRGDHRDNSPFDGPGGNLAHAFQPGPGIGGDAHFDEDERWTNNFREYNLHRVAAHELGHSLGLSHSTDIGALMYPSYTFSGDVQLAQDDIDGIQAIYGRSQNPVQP
Description: In vitro collagenase assay (human recombinant fibroblast collagenase). It counts as biochemical. The following applies: for inhibition at 10 µM: read-out: MMP 1 % inhibition at 10 micromolar (*); for IC50: read-out: MMP 1 IC 50. Here is the method: The assay is based on the cleavage of a peptide substrate ((Dnp-Pro-Cha-Gly-Cys(iNe)-His-Ala-Lys(NMa)-NH2), Peptide International, Inc.) by collag,enase releasing the fluorescent NMa group which is quantitated on the fluorometer. Dnp quenches the NiIa fluorescence in the intact substrate. […] Substrate is dissolved in methanol and stored frozen in 1 mM aliquots. Collagenase is stored frozen in buffer in 25 µM aliquots. For the assay, substrate is dissolved in HCBC buffer to a final concentration of 10 μM and collagenase to a final concentration of 5 nM. Compounds are dissolved in methanol, DMSO, or HCBC. The methanol and DMSO are diluted in HCBC to <1.0%. Compounds are added to the 96 well plate containing enzyme and the reaction is started by the addition of substrate.
The slope of the line is calculated and represents the reaction rate.
The mean (x±sem) of the control rate is calculated and compared for statistical significance (p<0.05) with drug-treated rates using Dunnett's multiple comparison test.

Series [2] has as its target T1, MMP 13. Put plainly: MMP 13 inhibition (manual). Type of series: biochemical. The conditions noted are these: read-out: MMP 13 IC 50.

Counter-ions that a name gives are not always drawn.

T2 sequence (P78536 215-824): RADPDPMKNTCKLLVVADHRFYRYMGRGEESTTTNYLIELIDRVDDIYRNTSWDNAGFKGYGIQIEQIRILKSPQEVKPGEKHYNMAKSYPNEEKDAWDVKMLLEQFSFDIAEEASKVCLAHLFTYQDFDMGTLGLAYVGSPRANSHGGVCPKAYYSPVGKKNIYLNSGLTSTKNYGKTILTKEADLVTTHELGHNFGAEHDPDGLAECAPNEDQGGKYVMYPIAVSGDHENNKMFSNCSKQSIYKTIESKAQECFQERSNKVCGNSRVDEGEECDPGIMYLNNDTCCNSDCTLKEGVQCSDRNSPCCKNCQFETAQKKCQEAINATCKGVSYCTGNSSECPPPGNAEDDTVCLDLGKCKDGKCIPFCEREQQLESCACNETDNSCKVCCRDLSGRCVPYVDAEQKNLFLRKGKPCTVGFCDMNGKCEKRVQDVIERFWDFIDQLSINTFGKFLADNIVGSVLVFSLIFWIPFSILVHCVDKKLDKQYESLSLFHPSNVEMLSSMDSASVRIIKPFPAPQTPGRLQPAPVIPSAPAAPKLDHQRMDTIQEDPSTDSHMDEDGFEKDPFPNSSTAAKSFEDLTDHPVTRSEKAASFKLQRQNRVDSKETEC
T3 sequence (P14780 94-707): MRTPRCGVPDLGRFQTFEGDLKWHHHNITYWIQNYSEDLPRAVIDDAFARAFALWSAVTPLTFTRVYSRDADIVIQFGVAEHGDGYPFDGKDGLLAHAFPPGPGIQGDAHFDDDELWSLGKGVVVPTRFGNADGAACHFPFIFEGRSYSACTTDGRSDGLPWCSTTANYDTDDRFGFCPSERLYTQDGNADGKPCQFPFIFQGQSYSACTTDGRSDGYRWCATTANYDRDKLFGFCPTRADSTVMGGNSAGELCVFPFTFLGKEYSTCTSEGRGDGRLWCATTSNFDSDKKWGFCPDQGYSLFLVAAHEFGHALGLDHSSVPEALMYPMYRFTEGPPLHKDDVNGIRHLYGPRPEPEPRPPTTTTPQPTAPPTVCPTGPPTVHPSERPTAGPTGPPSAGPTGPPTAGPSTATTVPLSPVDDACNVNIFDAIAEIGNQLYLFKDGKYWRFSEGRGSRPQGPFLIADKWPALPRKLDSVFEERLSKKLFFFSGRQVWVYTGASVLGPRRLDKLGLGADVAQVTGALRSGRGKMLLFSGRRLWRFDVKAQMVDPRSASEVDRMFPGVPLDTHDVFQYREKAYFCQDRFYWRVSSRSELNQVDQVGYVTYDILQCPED

As to “2-(4-Acetylamino-benzenesufanyl)-N-hydroxy-3-phenyl-propionarnide [Example 129]”, on MMP 13 [1], the “MMP 13 % inhibition at 0.2 μM (HTS)” value came to 90%.
The term melting point denotes the temperature of the solid-liquid transition. `CN1CCC(C(=O)NO)(S(=O)(=O)c2ccc(OCc3ccc(Cl)cc3)cc2)CC1` (as salt: HCl) [Example 264, [4-(4-Chloro-benzyloxy)benzenesulfonyl]-1-methylpiperidine-4-carboxylic acid hydroxamide] returned a melting point of 117.8 °C.
Same read-out and setting: under `Cc1ccc(CN2CCC(C(=O)NO)(S(=O)(=O)c3ccc(OCc4ccc(Cl)cc4)cc3)CC2)cc1` (as salt: HCl) [Example 266, [4-(4-Chloro-benzyloxy)-benzenesulfonyl]-1-(4-methylbenzyl)-piperidine-4-carboxylic acid hydroxamide] stands 172 °C; under `CCCCOc1ccc(S(=O)(=O)C2(C(=O)NO)CCN(Cc3ccc(C)cc3)CC2)cc1` (as salt: HCl) [Example 267, 4-(4-Butoxy-benzenesulfonyl)-1-(4-methylbenzyl)-piperidine-4-carboxylic acid hydroxamide], 137 °C; under `CCCCOc1ccc(S(=O)(=O)C2(C(=O)NO)CCN(Cc3ccc(C#N)cc3)CC2)cc1` (as salt: HCl) [Example 268, 4-(4-Butoxy-benzenesulfonyl)-1-(4-cyano-benzyl)-piperidine-4-hydroxamide carboxylic acid hydroxamide], 241.6 °C.
Same read-out and setting: the figure for `CCCCOc1ccc(S(=O)(=O)C2(C(=O)NO)CCN(Cc3ccncc3)CC2)cc1` (as salt: HCl) [Example 269, 4-(4-Butoxy-benzenesulfonyl)-1-pyridin-4-ylmethyl-piperidine-4-carboxylic acid hydroxamide] is 118 °C.
As for `CCCC(Cc1ccc(OCCN2CCOCC2)cc1)(C(=O)NO)S(=O)(=O)c1ccc(OC)cc1` (centres unmarked) [Example 35, 2-(4-Methoxy-benzenesulfonyl)-2-[4-(2-morpholin-4-yl-ethoxy)-benzyl]-pentanoic acid hydroxyamide], the melting point came to 101 °C. The IC50 at TACE came to 44.9 nM.
In turn, `COc1ccc(S(=O)(=O)C(Cc2cccnc2)(CC(C)C)C(=O)NO)cc1` (centres unmarked) [Example 66, 2-(4-Methoxy-benzenesulfonyl)-4-methyl-2-pyrdin-3-yh nethyl-pentoic acid hydroxyamide] showed a melting point of 78 °C.
On the same count and under the same terms, under `CC#CCC(Cc1cccnc1)(C(=O)NO)S(=O)(=O)c1ccc(F)cc1` (centres unmarked) [Example 76, 2-(4-Fluoro-benzenesulfonyl)-2-pyridin-3-ylmethyl-hex4-ynoic acid hydroxyamide] stands 150 °C; under `CCCCCC#CCC(Cc1cccnc1)(C(=O)NO)S(=O)(=O)c1ccc(F)cc1` (centres unmarked) [Example 77, 2-(4-Fluoro-benzenesulfonyl)-2-pyridin-3-ylmethyl-decfynoic acid hydroxyamide], 123 to 124 °C; under `COc1ccc(S(=O)(=O)C2(C(=O)NO)CCN(Cc3ccccc3)CC2)cc1` [Example 83, 1-Benzyl-4-(4-methoxy-benzenesulfonyl)-piperidine-4carboxylic Acid hydroxyamide], 90 to 95 °C.
Take `O=C(CCC(C(=O)NO)[S+]([O-])c1ccc(Br)cc1)NO` (centres unmarked) [Example 135, 4-Hydroxycarbamoyl-4-(4-bromo-benzenesulfinyl)-butyric acid hydfoxyamide]: the “MMP 13 % inhibition at 0.2 μM (HTS)” value on MMP 13 [1] is 79%.
Still for that read-out and setting: under `O=C(CCC(C(=O)NO)[S+]([O-])c1ccccc1C(F)(F)F)NO` (centres unmarked) [Example 138, 4-Hydroxycarbamoyl-4-(2-triuoromethyl-benzenesulfmyl)-butyric acid hydroxyamide] stands 20%.
`O=C(CCC(C(=O)NO)S(=O)(=O)c1ccccc1C(F)(F)F)NO` (centres unmarked) [Example 139, 4-Hydroxycarbamoyl-4-(2-trifiuoromethyl-benzenesulfonyl)-butyric acid hydroxyamide]: on MMP 13 [1], the “MMP 13 % inhibition at 0.2 μM (HTS)” value stood at 8%.
On the same count and under the same terms, under `C[S+]([O-])c1ccc([S+]([O-])C(COCc2ccccc2)C(=O)NO)cc1` (centres unmarked) [Example 147, 3-Benzyloxy-N-hydroxy-2-(4-methanesulfinyl-benzenesulfmyl)-propionamide] stands 73%; under `CCCCCCC(C(=O)NO)S(=O)(=O)c1cccc(OC)c1` (centres unmarked) [Example 164, 2-(3-Methoxybenzenesulfonyl)tanoic acid hydroxyamide], 74%.
With `CCCCCCC(SCCc1ccccn1)C(=O)NO` (centres unmarked) [Example 173, 2-(2-Pyridin-2-yl-ethylsulfanyl)-octanoic acid hydroxyaride], the “MMP 13 % inhibition at 36 nM (HTS)” value on MMP 13 [1] turned out to be 18%.
For `CCCCCCC(C(=O)NO)[S+]([O-])CC(=O)Nc1ccc2ccccc2c1` (centres unmarked) [Example 191, 2-(Naphthalen-2-ylcarbamoylmethanesulfimyl)-cmtanoic acid hydroxyamide], the “MMP 13 % inhibition at 36 nM (HTS)” value at MMP 13 [1] is listed as −45%.
The same measure, in the same setting: under `CCCCCCC(C(=O)NO)S(=O)(=O)c1nccs1` (centres unmarked) [Example 195, 2-(Thiazol-2-ylsulfonyl)-octanoic acid hydroxyamde] stands −9%.
As to `CCCCCCC(C(=O)NO)S(=O)(=O)c1cccc2cccnc12` (centres unmarked) [Example 196, 2-(Quinoline-8-sulfonyl)-octanoic acid hydroxyamde], the “MMP 13 % inhibition at 36 nM (HTS)” value at MMP 13 [1] is −18%.
Same read-out and setting: under `CCCCCCC(C(=O)NO)S(=O)(=O)CC1NC(=O)NC1=O` (centres unmarked) [Example 198, 2-(2,5-Dioxo-inidazolidinylmethylsulfonyl)-octanoic acid hydroxyamide] stands −39%.
Usually inhibition stands for the percentage by which the read-out fell short of the control. In the case of `O=C(NO)C1(S(=O)(=O)c2ccc(OCc3ccccc3)cc2)CCN(Cc2ccccc2)CC1` [Example 241, 1-Benzyl-4-(4-benzyloxy-benzenesulfonyl)-piperidinefcarboxylic acid hydroxyamide], the melting point was determined as 89 °C. In addition, the IC50 at MMP 9 was found to be 2.7 nM. At TACE, the IC50 turned out to be 277 nM. On MMP 1, the inhibition at 10 µM was 48.2%.
With `CCCCOc1ccc(S(=O)(=O)C2(C(=O)NO)CCN(C)CC2)cc1` [Example 244, 1-Methyl-4-(4-butoxy-benzenesulfonyl)-piperidine-4-carboxylic acid hydroxyamide], the melting point was determined as 118 °C. Further, on MMP 13 [2], the IC50 turned out to be 1.5 nM. Also, on MMP 9, the IC50 was found to be 9.8 nM. The IC50 at TACE stood at 594 nM. The IC50 on MMP 1 was 3420 nM.
Molecule `CCCCOc1ccc(S(=O)(=O)C2(C(=O)NO)CCN(CC)CC2)cc1` [Example 245, 1-Ethyl-4-(4-butoxy-benzenesulfonyl)-piperidine-4-carboxylic acid hydroxyamide] returned a melting point of 98 °C. Besides, on MMP 13 [2], the IC50 worked out at 2.2 nM. Further, the IC50 on MMP 9 stood at 43.4 nM. Besides, the inhibition at 10 µM on TACE (read-out: TACE % inhibition at 10 micromolar (*)) is 52%. The IC50 at MMP 1 came out at 7060 nM.
With `CCCCOc1ccc(S(=O)(=O)C2(C(=O)NO)CCN(CCCC)CC2)cc1` [Example 246, 1-n-Butyl-4-(4-butoxy-benzenesulfonyl)-piperidine-4-carboxylic acid hydroxyamide], the melting point turned out to be 121 °C. Moreover, the IC50 at MMP 13 [2] is 2.4 nM. For the same molecule, the IC50 on MMP 9 came to 28.3 nM. In addition, the IC50 on TACE is 880 nM. Besides, on MMP 1, the inhibition at 10 µM worked out at 50.3%.
